In patent US11286268B1, “EIF4E-inhibiting compounds and methods” (EFFECTOR THERAPEUTICS, INC., priority 2019, dated 2022):
Like-named read-outs stand apart in the source and are kept apart here.

Biological target: recombinant eIF4E (Homo sapiens (Human), UniProt P06730)
Experiment: Fluorescence polarization competition assay for eIF4E binding potency
Procedure, shortened: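 Competition of test compound against 20 nM EDA-m^7GDP-ATTO-550 for 75 nM recombinant eIF4E, pre-incubated 5 min, in 20 mM Tris pH 7.5, 100 mM NaCl, 1 mM DTT, 0.02% Tween-20, 1% DMSO. Equilibrated 30 min at room temperature, dark; fluorescence polarization read. IC50 from 8-point, 3-fold dilution series.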

[1] = fluorescence polarization competition, 75 nM recombinant eIF4E, 20 nM EDA-m7GDP-ATTO-550, IC50 class, read-out: elF4E FP
[2] = inhibition of eIF4E/EDA-m7GDP-ATTO-550 binding by 50%, Table 4B calculated values, read-out: IC50
[3] = inhibition of eIF4E/EDA-m7GDP-ATTO-550 binding, calculated IC50 values, Table 4B, read-out: IC50

Sequence of recombinant eIF4E (P06730 whole entry): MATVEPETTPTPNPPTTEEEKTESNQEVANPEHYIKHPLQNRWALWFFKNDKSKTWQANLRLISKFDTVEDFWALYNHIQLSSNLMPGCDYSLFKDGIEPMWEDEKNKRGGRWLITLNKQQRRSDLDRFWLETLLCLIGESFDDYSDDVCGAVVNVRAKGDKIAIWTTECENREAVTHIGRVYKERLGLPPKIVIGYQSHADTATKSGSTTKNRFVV

Compound	IC50 [1] [nM]	IC50 [2] [nM]	IC50 [3] [nM]
N#Cc1cc(C(F)(F)F)cc2nc(C#N)n(CCOc3ccc(Cl)cc3-c3cccc(C(=O)O)c3)c(=O)c12 [compound 185]	50 to 1000	94.9	
CCc1cc(-c2cc(Cl)ccc2OCCn2c(C)nc3cnc(C4CC4)c(C#N)c3c2=O)c2scc(C(=O)O)c2n1 [compound 793]	< 50	4.81	
Cc1cc(-c2cc(Cl)ccc2OCCn2c(C)nc3cc(C(F)(F)F)c(CN4CCSCC4)c(C#N)c3c2=O)c2scc(C(=O)O)c2n1 [compound 1376]			13.6
Cc1cc(-c2cc(Cl)ccc2OCCn2c(C)nc3cc(F)c(F)c(C#N)c3c2=O)c2scc(C(=O)NS(C)(=O)=O)c2n1 [compound 567]	< 50	11.7	
CC(=O)c1csc2c(-c3cc(Cl)ccc3C#CCn3c(C)nc4cnc(N(C)[C@H]5C[C@H]6CC[C@@H](C5)N6CC(F)F)c(C#N)c4c3=O)ccnc12 [compound 1406]			26.6
Cc1nc2cnc(N3CC4(CC4)N(C)C4(CC4)C3)c(C#N)c2c(=O)n1CCOc1ccc(Cl)cc1-c1ccnc2c(C(=O)O)csc12 [compound 1363]			42.9
Cc1cc(-c2cc(Cl)ccc2OCCn2c(C)nc3cc(C(F)(F)F)c(Cc4cccnc4)c(Cl)c3c2=O)c2scc(C(=O)O)c2n1 [compound 399]	50 to 1000	69.9	
Cc1cc(-c2cc(Cl)ccc2OCCn2c(C)nc3cc(C(F)(F)F)c(OCCN4CCNCC4)c(C#N)c3c2=O)c2sc(C)c(C(=O)O)c2n1 [compound 1392]			26.5
N#Cc1cc2c(=O)n(CCOc3ccc(Cl)cc3-c3cncc(C(=O)O)n3)cnc2cn1 [compound 85]	> 1000	1850	
Cc1ccc(-c2cc(Cl)ccc2OCCn2c(C)nc3c(C#N)nc(-c4cccnc4)c(C)c3c2=O)c2scc(C(=O)O)c12 [compound 729]	50 to 1000	92.5	
Cc1nc2cnc(N3CC4(C3)CN(C3CC3)C4)c(C#N)c2c(=O)n1CC#Cc1ccc(Cl)cc1-c1ccnc2c(C(=O)O)csc12 [compound 822]	< 50	10.7	
Cc1nc2cnc(N(C)C3CC4(C3)CN(C(C)(C)CF)C4)c(C#N)c2c(=O)n1CC#Cc1ccc(Cl)cc1-c1ccnc2c(C(=O)O)csc12 [compound 828]	< 50	5.72	
Cc1nc2cc(C(F)(F)F)c(CCN3CC(F)(F)C3)c(C#N)c2c(=O)n1CCOc1ccc(Cl)cc1-c1ccnc2c(C(=O)O)csc12 [compound 1287]			42.4
Cc1nc2cc(C#N)cc(C#N)c2c(=O)n1CC#Cc1ccc(Cl)cc1-c1ccnc2c(C(=O)O)csc12 [compound 258]	< 50	37.7	
Cc1cc(-c2cc(Cl)ccc2OCCn2c(C)nc3cc(Cl)c(C4CC4)c(C#N)c3c2=O)c2scc(C(=O)O)c2n1 [compound 1050]	< 50	19.5	
Cc1c(S(C)(=O)=O)c2cc(C(F)(F)F)cc(C#N)c2c(=O)n1CCOc1ccc(Cl)cc1-c1ccnc2c(C(=O)O)csc12 [compound 318]	< 50	2.92	
Cc1c(O)c2cc(C(F)(F)F)cc(C#N)c2c(=O)n1CCOc1ccc(Cl)cc1-c1ccnc2c(C(=O)O)csc12 [compound 310]	50 to 1000	97.7	
Cc1cc(-c2cc(Cl)ccc2OCCn2c(C)nc3cnc(N4CCC(F)(F)CC4)c(C#N)c3c2=O)c2scc(C(=O)O)c2n1 [compound 1097]	< 50	38.8	
Cc1nc2cnc(N3CCN(CCC(F)(F)F)CC3)c(C#N)c2c(=O)n1CC#Cc1ccc(Cl)cc1-c1ccnc2c(C(=O)NS(C)(=O)=O)csc12 [compound 1486]			10.7
Cc1nc2cc(C(F)(F)F)c(N3CCN(CCO)CC3)c(C#N)c2c(=O)n1CC#Cc1ccc(Cl)cc1-c1ccnc2c(C(=O)O)csc12 [compound 859]	< 50	5.59	

Compound	IC50 [1] [nM]	IC50 [2] [nM]	IC50 [3] [nM]
Cc1nc2cc(C(F)(F)F)cc(Br)c2c(=O)n1CCOc1ccc(Cl)cc1-c1ccnc2c(C(=O)O)csc12 [compound 305]	50 to 1000	431	
Cc1nc2cc(C(F)(F)F)c(N3CCN(C)CC3)c(C#N)c2c(=O)n1CCOc1ccc(Cl)cc1 [compound 808]	50 to 1000	52.4	
CCOP(=O)(OCC)c1csc2c(-c3cc(Cl)ccc3OCCn3c(C)nc4cc(C(F)(F)F)c(N5CCN(C6CC6)CC5)c(C#N)c4c3=O)ccnc12 [compound 1614]			31.4
Cc1cc(-c2cc(Cl)ccc2OCCn2c(C)nc3cc(Cl)c(N4CCCC4(C)C)c(C#N)c3c2=O)c2scc(C(=O)O)c2n1 [compound 920]	< 50	5.76	
Cc1nc2cc(C(F)(F)F)c(C#CCN)c(C#N)c2c(=O)n1CCOc1ccc(Cl)cc1-c1ccnc2c(C(=O)O)csc12 [compound 1260]			13
Cc1nc2cc(C(F)(F)F)cc(C#N)c2c(=O)n1CCOc1ccc(Cl)cc1C1CCNC(C(=O)O)C1 (centres unmarked) [compound 535]	50 to 1000	244	
Cc1nc2cc(C(F)(F)F)c(N3CCN(C)CC3)c(C#N)c2c(=O)n1CCOc1ccc(Cl)cc1-c1ccnc2c(C#N)csc12 [compound 1254]			26.5
Cc1cc(-c2cc(Cl)ccc2OCCn2c(C)nc3cc(Cl)c(-c4ncco4)c(C#N)c3c2=O)c2scc(C(=O)O)c2n1 [compound 1006]	< 50	18.2	
Cc1nc2cc(C(F)(F)F)cc(C#N)c2c(=O)n1CCOc1ccc(Cl)cc1-c1ccnc2c1CCC2C(=O)O (centres unmarked) [compound 496]	> 1000	1060	
Cc1nc2cc(S(C)(=O)=O)c(Cl)c(C#N)c2c(=O)n1CCOc1ccc(Cl)cc1-c1ccnc2c(C(=O)O)csc12 [compound 277]	< 50	30.7	
Cc1nc2cc(C(F)(F)F)cc([N+](=O)[O-])c2c(=O)n1CCOc1ccc(Cl)cc1-c1ccnc2c(C(=O)O)csc12 [compound 271]	< 50	13.2	
Cc1cc(-c2cc(Cl)ccc2OCCn2c(C)nc3cc(C(F)(F)F)c(C4CCN(C)CC4)cc3c2=O)c2sc(C)c(C(=O)O)c2n1 [compound 1971]			51.9
Cc1nc2ccc(S(C)(=O)=O)c(C#N)c2c(=O)n1CCOc1ccc(Cl)cc1-c1ccnc2c(C(=O)O)csc12 [compound 195]	< 50	27.4	
Cc1nc2cc(CN(C)Cc3cn(C)nn3)c(OC(F)F)c(C#N)c2c(=O)n1CCOc1ccc(Cl)cc1-c1ccnc2c(C(=O)O)csc12 [compound 651]	< 50	21.8	
Cc1nc2cnc(N(C)C3CCN([C@H]4C[C@H](OC(F)F)C4)CC3)c(C#N)c2c(=O)n1CC#Cc1ccc(Cl)cc1-c1ccnc2c(C(=O)NS(C)(=O)=O)csc12 [compound 1761]			5.65
Cc1nc2ccc(S(=O)(=O)N3CCCCC3)c(C#N)c2c(=O)n1CCOc1ccc(Cl)cc1-c1ccnc2c(C(=O)O)csc12 [compound 251]	< 50		
N#Cc1cncc2nc(CCC(=O)O)n(CCOc3ccc(Cl)cc3-c3ccccc3)c(=O)c12 [compound 48]	50 to 1000	631	
Cc1cc(-c2cc(Cl)ccc2OCCn2c(C)nc3c(C)nc(-c4ccc(F)cc4)c(C#N)c3c2=O)c2scc(C(=O)O)c2n1 [compound 474]	< 50	13.5	
Cc1cc(-c2cc(Cl)ccc2OCCn2c(C)nc3cc(Cl)c(-c4ccc(N(C)C)nc4)c(C#N)c3c2=O)c2scc(C(=O)O)c2n1 [compound 397]	< 50	10.5	
Cc1cc(-c2cc(Cl)ccc2OCCn2c(C)nc3cc(Cl)c(C4CCC4)c(C#N)c3c2=O)c2scc(C(=O)O)c2n1 [compound 1047]	< 50	21.2	
